Experiments:
Assay type in all cases: in vivo, rat
[1] = test system: PCS rats; assay: Circadian rhythms of spontaneous locomotor activity (actimeter), PCS rats (Example 11)
Experimental: (§1) Male Wistar rats (220-240 g) were anesthetized with isoflurane, and an end-to side porta-caval anastomosis was performed as described by Lee and Fisher (Surgery, 1961, 50, 668-672).
(§2) Rats that were subjected to the porta-caval anastomosis procedure are herein referred to as “PCS rats”.
(§3) 3α-ethynyl-3β-hydroxyandrostan-17-one oxime in sesame oil was administered by subcutaneous injections in the back of the rats, once daily. Two different sets of experiments were performed in hyperammonemic rats. In the first set four groups of rats were used: 1) control rats injected with vehicle; 2) hyperammonemic rats injected with vehicle; 3) control rats injected with 20 mg/Kg of 3α-ethynyl-3β-hydroxyandrostan-17-one oxime and 4) hyperammonemic rats injected with 20 mg/Kg of 3α-ethynyl-3β-hydroxyandrostan-17-one oxime.
(§4) For the experiments using PCS rats, the following groups of rats were used: 1) Sham rats injected with vehicle; 2) PCS rats injected with vehicle; 3-4) PCS rats injected with 0.7 or 2.5 mg/Kg of 3α-ethynyl-3β-hydroxyandrostan-17-one oxime. The number of rats used in each experiment is either shown in the corresponding Figure or given in the description of the corresponding Figure.
Motor activity was measured using an actimeter (Med Associates, S t. Albans, Vt.). Rats were placed individually in an open-field activity chamber (43×43×31 cm), and motor activity was recorded continuously for 14 days in conditions of light-dark (L:D), 12 h:12 h. Data were recorded at intervals of 5 minutes. Motor activity was detected by arrays of infrared motion detectors, placed in three directions, x, y and z. One ambulatory count is recorded by the apparatus when the rat interrupts three consecutive infrared detectors, in x or y position. A vertical count is recorded when rat interrupts infrared detectors in z position. The software allows measuring different parameter of motor activity, such as ambulatory counts or vertical counts (Ahabrach et al. Journal of Neuroscience Research, 2010, 88, 1605-14).

[2] = Exposure in plasma and brain tissue, hyperammonemic rats (Example 13); settings: for Total concentration in plasma: at the time for behavioral testing
Experimental: (§5) Male Wistar rats (140-160 g) were made hyperammonemic by feeding them a diet containing ammonium acetate (30% by weight) (Felipo et al, European Journal of Biochemistry, 1988, 176, 567-571).
as §3
In the second set of experiments five groups of rats were used: 1) control rats injected with vehicle; 2) hyperammonemiac rats injected with vehicle and 3-5) hyperammonemic rats injected with 3, 10 or 20 mg/Kg of 3α-ethynyl-3β-hydroxyandrostan-17-one oxime. In each experiment 6-8 rats per group were used.
(§6) At the end of the treatment period plasma was collected from the tail vein, and after sacrifice by decapitation brains were collected and immediately frozen on dry ice. For analysis of 3α-ethynyl-3β-hydroxyandrostan-17-one oxime exposure, brain tissue was homogenized with a 1:4 ratio of tissue: PBS (pH 7.4) and then extracted with a 2-fold volume of methanol:acetonitrile (1:1), while plasma was protein-precipitated with a 3-fold volume with acetonitrile. Analyses were performed by Waters ACQUITY UPLC+Waters XEVO-TQS triple quadrupole mass spectrometer (Admescope Oy, Oulu, Finland). For calculations of the amount of free 3α-ethynyl-3β-hydroxyandrostan-17-one oxime exposure in the brain the fraction unbound (Fb) in brain homogenates were determined by dialysis, Fub in HA=[…] and Fub in PCS=1.43% (Admescope Oy, Oulu, Finland).

[3] = Exposure in plasma and brain tissue, PCS rats (Example 13); settings: for Total concentration in plasma: at the time for behavioral testing
Experimental: as §1, §2, §3, §4, §6

[4] = test system: PCS rats; assay: Radial maze test, PCS rats (Example 10)
Experimental: as §1, §2, §3
For the experiments using PCS rats, the following groups of rats were used: 1) Sham rats injected with vehicle; 2) PCS rats injected with vehicle; 3-4) PCS rats injected with 0.7 or 2.5 mg/Kg of 3α-ethynyl-3β-hydroxyandrostan-17-one oxime. […]
The apparatus was composed of a central area that gave access to eight equally-sized arms. […] The number of working memory errors (visits to arms already visited in the same trial) were recorded and expressed as working errors.

[5] = test system: hyperammonemic rats; assay: Beam walking test, hyperammonemic rats (Example 8)
Experimental: as §5
as §3, with “oxime. […]” for “oxime.”
Motor coordination was tested as described by Gonzalez-Usano et al (ACS Chemical Neuroscience, 2014, 19, 5(2), 100-105) using a wooden beam (20 mm diameter). Rats were made to traverse a one-meter-long wooden beam located approximately one meter above the ground, and the number of foot faults (slips) was recorded by two observers. The rats were trained for the test by being made to traverse the beam up to five times before measurements were recorded. […]

C#C[C@]1(O)CC[C@@]2(C)C(CC[C@@H]3[C@@H]2CC[C@]2(C)/C(=N\O)CC[C@@H]32)C1 (stereo partly drawn) [3α-ethynyl-3β-hydroxyandrostan-17-one oxime]
Motor activity (ambulatory counts) during the night ([1]; 0.7 mg/kg): 2652±275 counts | Night/day ratio of ambulatory activity ([1]; 0.7 mg/kg): 1.7±0.2 | Night/day ratio of vertical activity ([1]; 0.7 mg/kg): 2.1±0.4 | Vertical activity during the day ([1]; 0.7 mg/kg): 339±47 counts | Vertical activity during the night ([1]; 0.7 mg/kg): 664±121 counts | Motor activity (ambulatory counts) during the night ([1]; 2.5 mg/kg): 2235±170 counts | Night/day ratio of ambulatory activity ([1]; 2.5 mg/kg): 1.6±0.3 | Night/day ratio of vertical activity ([1]; 2.5 mg/kg): 1.9±0.6 | Vertical activity during the day ([1]; 2.5 mg/kg): 424±44 counts | Vertical activity during the night ([1]; 2.5 mg/kg): 695±185 counts | Unbound concentration in the brain tissue ([2]; 3 mg/Kg s.c. once daily): 6.1 ± 1.4 nmol/kg | Total concentration in plasma ([2]; 3 mg/Kg s.c. once daily): 0.34 ± 0.03 µM | Unbound concentration in the brain tissue ([2]; 10 mg/Kg s.c. once daily): 11.6 ± 1.4 nmol/kg | Total concentration in plasma ([2]; 10 mg/Kg s.c. once daily): 1.08 ± 0.11 µM | Unbound concentration in the brain tissue ([2]; 20 mg/Kg s.c. once daily): 23 ± 5 nmol/kg | Total concentration in plasma ([2]; 20 mg/Kg s.c. once daily): 1.95 ± 0.61 µM | Unbound concentration in the brain ([3]; 0.7 mg/kg/day s.c.): 6.18 ± 0.97 nmol/kg | Total concentration in plasma ([3]; 0.7 mg/kg/day s.c.): 0.48 ± 0.09 µM | Unbound concentration in the brain ([3]; 2.5 mg/kg/day s.c.): 17 ± 2 nmol/kg | Total concentration in plasma ([3]; 2.5 mg/kg/day s.c.): 1.64 ± 0.30 µM | Number of working errors in days 1-2, radial maze ([4]; 0.7 mg/Kg): 23±2 errors | Number of working errors in days 1-2, radial maze ([4]; 2.5 mg/Kg): 11±1 errors | Number of slips, beam walking test ([5]; 3 mg/kg s.c. once daily): 0.8±0.1 slips | Number of slips, beam walking test ([5]; 20 mg/kg s.c. once daily): 0.78±0.07 slips

Reference: patent publication US10342804B2, “Steroid compound for use in the treatment of hepatic encephalopathy” (Umecrine Cognition AB, priority 2014, dated 2019)
